Patent publication US9504685B2, “Method for treating a pulmonary hypertension condition” (Gilead Sciences, Inc., priority 2006, dated 2016)

Test system: subjects with PAH
Experiment: Example 2 (ARIES-1) placebo-controlled Phase III trial, efficacy
Assay type: in vivo, human
Details: for change from baseline in mean 6MWD at Week 12: subjects who received supplemental oxygen
Procedure: The primary objective of this study was to determine the effect of ambrisentan on exercise capacity in subjects with pulmonary arterial hypertension (PAH). The secondary objectives of this study were to evaluate effects of ambrisentan on other clinical measures of PAH, as well as safety and tolerability of the study drug.
Study drug was provided in round, biconvex, oral tablets that were identical in appearance. Three strengths of active study drug containing 2.5 mg, 5 mg or 10 mg of ambrisentan were used in this study. All study drug was packaged in blister cards. Subjects were instructed to take study drug once daily (q.d.) by mouth (p.o.) in the morning, with or without food.
The maximum study duration was up to 14 weeks from the time of initial screening procedures to the final study visit (Week 12). Screening procedures were performed a maximum of 2 weeks prior to the first dose of study drug. The maximum duration of study drug treatment was 12 weeks.
Men and women, 18 years of age or older, with idiopathic PAH, PAH associated with CTD, e.g., mixed CTD, CREST syndrome, systemic sclerosis (scleroderma), overlap syndrome or systemic lupus erythematosus, or PAH associated with anorexigen use or HIV infection were enrolled in this study. Subjects were to have a documented mean PAP≧25 mmHg, PVR>3 mmHgL/min, and PCWP or LVEDP<15 mmHg. Subjects must have been able to walk a distance of at least 150 m but no more than 450 m during 2 consecutive 6MWTs to be eligible for inclusion in the study.
After a 2 week screening period, eligible subjects were stratified based on the underlying etiology of PAH (idiopathic or non-idiopathic) and were randomized to 1 of 3 treatment groups (placebo, 5 mg or 10 mg ambrisentan) in a ratio of 1:1:1. One blinded dose reduction was permitted during the 12-week treatment period in the event of study drug intolerance (e.g., 10 mg to 5 mg, 5 mg to 2.5 mg, placebo to placebo). Subjects received a daily dose of 2.5 mg ambrisentan only if they reduced from the 5 mg dose group. Subjects were assessed for efficacy and safety at monthly intervals.
Therefore, after a minimum treatment period of 4 weeks, subjects who met 2 or more of the following predefined early escape criteria may have been removed from the study: • (a) a decrease from baseline of at least 20% in 6MWD; • (b) an increase of 1 or more WHO functional class; • (c) worsening right ventricular failure (e.g., as indicated by increased jugular venous pressure, new or worsening hepatomegaly, ascites or peripheral edema); • (d) rapidly progressing cardiogenic, hepatic or renal failure; and/or • (e) refractory systolic hypotension (systolic blood pressure <85 mmHg).
The primary efficacy endpoint was change from baseline in 6MWD evaluated after 12 weeks of treatment compared to placebo.
The secondary efficacy endpoints included: • (a) time to clinical worsening of PAH, as defined by the time from randomization to the first occurrence of death, lung transplantation, hospitalization for PAH, atrial septostomy, study discontinuation due to addition of other PAH therapeutic agents, or study discontinuation due to 2 or more early escape criteria; • (b) change from baseline measured after 12 weeks of treatment compared to placebo in: • (i) WHO functional class; • (ii) SF-36® health survey physical functioning scale; • (iii) BDI immediately following exercise; and/or • (iv) an assessment of the safety and tolerability of the study drug; and • (c) change from baseline measured after 12 weeks of treatment compared to placebo in plasma levels of ET-1, BNP and cTnT. Safety Assessments
For the ITT population, subjects were considered as belonging to their randomized treatment group, regardless of the actual treatment received.
The primary efficacy endpoint was the change from baseline in 6MWD evaluated after 12 weeks of treatment compared to placebo, where the last observation was carried forward. […]

[1] = 10 mg once daily, baseline to Week 12
[2] = combined 5 mg and 10 mg groups, 12 weeks
[3] = combined 5 mg and 10 mg groups, Week 12
[4] = combined 5 mg and 10 mg groups, baseline to Week 12

COC(c1ccccc1)(c1ccccc1)[C@H](Oc1nc(C)cc(C)n1)C(=O)O [ambrisentan]
Change in SF-36 Social functioning, mean (SD) [1]: +4.11 ± 11.77 | Change in SF-36 Vitality, mean (SD) [1]: +5.03 ± 10.07 | Change in WHO functional class: +1 class [1]: 3 (4.5) subjects (% of ITT population) | Change in WHO functional class: +2 classes [1]: 0 (0.0) subjects (% of ITT population) | Change in WHO functional class: no change [1]: 44 (65.7) subjects (% of ITT population) | Change in WHO functional class: −1 class [1]: 15 (22.4) subjects (% of ITT population) | Change in WHO functional class: −2 classes [1]: 5 (7.5) subjects (% of ITT population) | placebo-adjusted 6MWD increase from baseline at Week 12 (WHO class I/II subgroup, 5 mg once daily): +25.6 m | placebo-adjusted 6MWD increase from baseline at Week 12 (WHO class I/II subgroup, 10 mg once daily): +42.0 m | placebo-adjusted 6MWD increase from baseline at Week 12 (WHO class III/IV subgroup, 5 mg once daily): +34.1 m | placebo-adjusted 6MWD increase from baseline at Week 12 (WHO class III/IV subgroup, 10 mg once daily): +56.9 m | placebo-adjusted BDI at Week 12 (combined 5 mg and 10 mg groups): −0.6 | Clinical worsening event: Atrial septostomy [2]: 0 (0.0) subjects (% of ITT population) | Clinical worsening event: Death [2]: 2 (1.5) subjects (% of ITT population) | Clinical worsening event: Escape criteria [2]: 2 (1.5) subjects (% of ITT population) | Clinical worsening event: Hospitalization for PAH [2]: 4 (3.0) subjects (% of ITT population) | Clinical worsening event: Lung transplantation [2]: 0 (0.0) subjects (% of ITT population) | Clinical worsening event: Study discontinuation due to addition of PAH treatment [2]: 1 (0.7) subjects (% of ITT population) | Clinical worsening: Total subjects with ≧1 event [2]: 6 (4.5) subjects (% of ITT population) | Change in 6MWD from baseline to Week 12, mean (combined 5 mg and 10 mg groups, ITT population): +33.2 meters | subjects who deteriorated by at least 1 WHO class [3]: 3.0% | subjects who had an improvement of 2 WHO classes [3]: 4.5% | Change in SF-36 Bodily pain, mean (SD) [4]: +0.42 ± 12.81 | Change in SF-36 General health, mean (SD) [4]: +1.66 ± 8.74 | Change in SF-36 Mental component summary, mean (SD) [4]: +1.30 ± 11.89 | Change in SF-36 Mental health, mean (SD) [4]: +1.18 ± 11.23 | Change in SF-36 Physical component summary, mean (SD) [4]: +3.34 ± 8.40 | Change in SF-36 Role-emotional, mean (SD) [4]: +2.19 ± 15.71 | Change in SF-36 Role-physical, mean (SD) [4]: +5.45 ± 10.47 | Change in SF-36 Social functioning, mean (SD) [4]: +2.61 ± 12.78 | Change in SF-36 Vitality, mean (SD) [4]: +3.71 ± 10.11 | Change in WHO functional class: +1 class [4]: 4 (3.0) subjects (% of ITT population) | Change in WHO functional class: +2 classes [4]: 0 (0.0) subjects (% of ITT population) | Change in WHO functional class: no change [4]: 91 (67.9) subjects (% of ITT population) | Change in WHO functional class: −1 class [4]: 33 (24.6) subjects (% of ITT population) | Change in WHO functional class: −2 classes [4]: 6 (4.5) subjects (% of ITT population) | placebo-adjusted 6MWD increase from baseline at Week 12 (female subjects, 5 mg once daily): +30.9 m | placebo-adjusted 6MWD increase from baseline at Week 12 (female subjects, 10 mg once daily): +57.7 m | placebo-adjusted 6MWD increase from baseline at Week 12 (idiopathic PAH subgroup, 5 mg once daily): +42.9 m | placebo-adjusted 6MWD increase from baseline at Week 12 (idiopathic PAH subgroup, 10 mg once daily): +56.9 m | placebo-adjusted 6MWD increase from baseline at Week 12 (male subjects, 5 mg once daily): +19.9 m | placebo-adjusted 6MWD increase from baseline at Week 12 (male subjects, 10 mg once daily): +13.1 m | placebo-adjusted 6MWD increase from baseline at Week 12 (non-idiopathic PAH subgroup, 5 mg once daily): +10.2 m | placebo-adjusted 6MWD increase from baseline at Week 12 (non-idiopathic PAH subgroup, 10 mg once daily): +43.0 m | placebo-adjusted 6MWD increase from baseline at Week 12 (subjects not receiving calcium channel blockers, 5 mg once daily): +38.7 m | placebo-adjusted 6MWD increase from baseline at Week 12 (subjects not receiving calcium channel blockers, 10 mg once daily): +67.9 m | reduction in the probability of clinical worsening (hazard ratio) compared to placebo (subjects receiving ambrisentan (combined group), 12 weeks): 50% | subjects hospitalized for PAH (subjects receiving ambrisentan (combined), 12 weeks): 3.0% | placebo-adjusted 6MWD increase from baseline at Week 12 (subjects receiving calcium channel blockers, 5 mg once daily): +15.1 m | placebo-adjusted 6MWD increase from baseline at Week 12 (subjects receiving calcium channel blockers, 10 mg once daily): +19.6 m | change from baseline in mean 6MWD at Week 12 (5 mg once daily): +21.1 m | change from baseline in mean 6MWD at Week 12 (10 mg once daily): +48.0 m
